Read-outs that look alike come from different tables or passages of the source.
Experiments:
[1] = tested on: B. stearothermophilus spores; assay: Suspension sterilization: survivor/reduction curves for spores in germicide; format: cell-based, Bacillus stearothermophilus
Description: The effectiveness of a sterilant is defined in terms of decimal reduction time (D-value). This is the exposure time (t) used under certain conditions to cause one log reduction (n) (90%) of the initial population. A suspension is expected to follow a predictable death rate regarding a plot of the amount of survivors over time. The negative reciprocal of the slope of regression lines of survivor curves gives the D-value where t=D×n n=[…]
(§1) In order to determine the reduction in spores after processing with cleaning agents, an effective and consistent method was developed. […] It was determined that residual hydrogen peroxide inhibited the growth at concentrations of 0.6% or higher for TSA plates and 6% or higher for blood plates (FIG. 12). It is believed that the catalase contained in the blood agar plates inactivated the hydrogen peroxide. […] Even though the blood agar plates allowed for dilutions as low as 1:10, the titre used was too low to detect more than a 3 log reduction in the process limiting the data collection for the survivor curves.
To ensure consistency, each vial was vortexed before each replicate and all of the material was removed from the pipette tip onto the plate. Disposable plate spreaders were used to prevent cross contamination. The moisture needed to be maintained at a certain level because the plates would dry out at 60° C., but if there was too much moisture the bacteria would streak across the plate and prevent an accurate count. The first procedure implemented was propping the plates open in a laminar flow hood to allow excessive moisture to dry. The second method employed was placing the plates in a beaker with a porous covering to trap some moisture while allowing the excess to evaporate.
Hydrogen peroxide at a concentration of 6% was used at temperatures of 40, 45 and 50° C. to calculate a curve for modeling the temperature effects on spore kill. […] Samples were removed and immediately placed in an ice bath at 10, 15, 20 and 30 min. The vial was well-mixed on a vortex, and then diluted 1:10 in series before plating.
Peracetic acid at concentrations of 0.1%, 0.05% and 0.005% were used only at 40° C. to calculate a curve for modeling the concentration effects on spore kill. […] Samples were removed and immediately placed in an ice bath at various time points depending on the concentration. The vial was well-mixed on a vortex, and then diluted 1:10 in series before plating.
(§2) Typically, a survivor curve is constructed with the initial population at time zero and the resultant populations at various time points. Since not all data points could be completed in the same day, some reduction curves were constructed to compare log reduction in the controls for each experiment over time. This normalized the data to its own experimental episode.

[2] = Bradford Assay of nonspecific proteins in collagenase digested vein samples; design: species or system human; details: 0.1% peracetic acid versus 6% hydrogen peroxide (FIGS. 29, 30)
Method: In a further study, the efficiency of peracetic acid (PAA) versus hydrogen peroxide (HP) was investigated. Samples were treated in either 0.1% PAA or 6% HP and were exposed for varying lengths of time at varying temperatures.
Without wishing to be bound by theory, it is believed that the peracetic acid opens the collagen matrix up to allow for greater penetration of the tissue. It also believed to break down the proteins better than hydrogen peroxide. […] The Bradford Assay (Bradford, 1976) is used to quantify nonspecific proteins in collagenase digested vein samples. The Bradford Assay is a general protein assay, is based on an absorbance shift in a dye (Coomassie brilliant blue G-250 dye (CBBG)). CBBG has an absorbance shift when bound to arginine and hydrophobic amino acid residues (e.g., tryptophan, tyrosine, histidine and phenylalanine) present in protein. The reduction in antigenicity is correlated in the immunohistochemical staining (e.g., groups L and K from Example 5) and the histopathology scores (e.g., prototype recipe from Example 4).

[3] = tested on: collagen; assay: Collagen denaturation, quantitative enzyme digestion assay (matrix integrity)
Method: One of the major structural components of the extracellular matrix that gives veins their strength is collagen. Damage to collagen can result in mechanical failures such as increased compliance or aneurism formation. It can also result in a cellular response due the exposure of the triple helix when stability is compromised. The amount of collagen denaturation was assessed to evaluate processing conditions with a quantitative enzyme digestion assay. […] Digested and undigested fractions are separated and hydrolyzed with concentrated hydrochloric acid (HCl) to release free amino acids from each fraction. Following neutralization of the acid in 1 N NaOH, levels of hydroxyproline (an amino acid present in high concentrations in collagen) are assessed in each fraction by a calorimetric method at a wavelength of 550 nm (Chloramine T binding, and reduction of the substrate DAB to a colored end product). The level of denatured collagen in a given sample is then expressed as a percent of the trypsin soluble fraction to the sum of both trypsin soluble and trypsin insoluble fractions.
Achieving the appropriate log reduction should not come at the expense of the integrity of the extracellular matrix. […] The effect of hydrogen peroxide at 6% at 40° C. and 50° C. on collagen was compared to PAA at 0.1% at the same specified temperatures.
Digested and undigested fractions are separated and hydrolyzed with concentrated hydrochloric acid (HCl) to release free amino acids from each fraction. Following neutralization of the acid in 1 N NaOH, levels of hydroxyproline (an amino acid present in high concentrations only in collagen) are assessed in each fraction by a calorimetric method (Chloramine T binding, and reduction of the substrate DAB to a colored end product). The level of denatured collagen in a given sample is then expressed as a percent of the trypsin soluble fraction to the sum of both trypsin soluble and trypsin insoluble fractions.

[4] = tested on: Bacillus stearothermophilus; assay: Growth inhibition by residual germicide on TSA and blood agar plates; format: cell-based
Method: as §1

[5] = tested on: human greater saphenous vein; details: 0.075% SDS; cited from earlier work
[6] = tested on: B. stearothermophilus; details: 6% in DI water, PBS (pH 6) or PBS (pH 7.2), 45° C., sonication
Method: In a separate study, 6% hydrogen peroxide was prepared in either DI water, PBS (pH 6) or PBS (pH 7.2). It was then used at 45° C. to treat B. stearothermophilus while under sonication.

[7] = tested on: enteric bacteria (E. coli, Enterococcus faecalis or Salmonella enteritidis); details: peroxide doses of 0.3 to 15%, 10 min; cited from earlier work
[8] = tested on: B. stearothermophilus spores
Method: Before enumerating the population remaining on tissue following chemical processing, the amount recoverable from the tissue must be determined. The recovery process developed involves the use of sonication, mechanical shaking and agitation on a vortex. Veins were cut into 30 mm segments and clamped at one end. […] The samples were then cut from the clamps and split open over a centrifuge tube containing 39.9 ml of Letheen broth to expose the lumen to the recovery process. A new pair of scissors or a new scalpel blade were used for each vein and the segments were cut over the broth to catch anything that may not have adhered to the surface of the tissue.
The tubes were sonicated at room temperature for ten minutes to break the bacteria from the surfaces. The tubes were then placed on a shaker where they were for another 10 min. The Letheen broth containing the tissue sample was then vortexed for 30 s and diluted in a series of 1:10 dilutions with each dilution plated on blood agar plates. The plates were incubated overnight at 60° C.
The procedure for spike recovery was used to collect data for the reduction curves. Vein segments were inoculated and then treated in one of the following conditions. Hydrogen peroxide (6%) was analyzed at 40° C. and 50° C. while peracetic acid (0.1%) was only tested at 40° C. At each time point, three samples were spiked and treated with one control for recovery efficiency.
as §2
A control was used at each experimental episode to provide a correction factor for the treated samples. The recovered population divided by the correction factor provides the surviving population after treatment.

[9] = tested on: B. stearothermophilus; details: 26.5% hydrogen peroxide, 25° C.; cited from earlier work
[10] = tested on: B. subtilis; details: hydrogen peroxide alone, 25° C.; cited from earlier work
[11] = tested on: Bacillus atrophaeus spores; details: 7.5% hydrogen peroxide, room temperature, 6 hour incubation; cited from earlier work
[12] = tested on: class I MHC antigens in human saphenous vein; assay: Immunohistochemical stain for class I MHC antigens after decellularization (Example 1)
Method: The effectiveness of cell and cellular debris removal was evaluated using two detergent and two enzyme solutions at various concentrations (Table 2). […] One treatment group combined Triton-X 100 with sodium deoxycholate. Trypsin alone at 0.05% (w/v) or 1.0% (w/v) and in combination with 0.02% (w/v) EDTA were the enzyme solutions used in the decellularization process.
(§3) Samples were then rinsed in PBS at room temperature for 10 minutes while continuously shaking. Following the rinse step, the samples were cut in half and either prepared for histology or immunohistochemistry.
Immunohistochemistry was used to determine the level of antigens remaining in the tissue after treatment. […] Samples were prepared in frozen blocks and sectioned with a cryostat. The sections were thawed and then rinsed for blocking and antibody staining. Sections were incubated for 30 minutes in primary antibody (mouse anti-HLA-ABC class I MHC) solution and then for anther 30 minutes in diluted biotinylated secondary antibody (Vector ABC Elite kit) solution. An enzyme substrate, NovaRed (Vector), was used to stain the antibodies red. The counter stain was hematoxylin providing a blue contrast.
A Zeiss Axiophot 2 microscope with a motorized Ludl scanning stage was used with tile field mapping at 5× to capture the entire image in one frame. Particle analysis was performed in Image J to determine the ratio of antigen staining (red) to the total tissue sample.
A blue and green filter was applied to only allow red to pass. Obvious areas of antigen staining were removed due to this variation in red hue. […] All samples were compared to their negatives for a percentage of red staining.
This procedure was applied to all images. […] The treatment groups are labeled according to the detergent or enzyme used followed by the processing conditions. For the Trypsin and Trypsin+EDTA groups, the concentrations ranged from 0.05% (L) to 1.0% (H), the processing temperatures were 37° C. (L), 48° C. (M) and 55° C. (H), and the processing times were 6 hrs (L), 17 hrs (M) and 24 hrs (H).

[13] = tested on: human saphenous vein; assay: Histology (H&E) for cellularity and matrix (Example 1); details: 0.05% Trypsin, 37° C., 6 or 24 hours (FIGS. 7, 8)
Method: as §3, with “Samples of human saphenous veins 10 mm in length were placed in each of the test solution at 37° C. or 48° C. for both 6 and 24 hours while continuously shaking. Samples” for “Samples”
Samples were placed in 10% buffered formalin immediately following the rinse step and remained there for at least 24 hours before further preparation. Then, the samples were embedded in paraffin and stained with hematoxylin and eosin (H&E) to determine cellularity.
The results of the immunohistochemical stain were compared to histology slides stained for cellularity (FIGS. 7 to 10). […] The extracellular matrix is preserved in each segment except with 1.0% Cholate at 48° C.

CC(=O)OO [peracetic acid]
D-value ([1]; 0.005% PAA, 40° C., spores in suspension (FIG. 19)): 6.45 | D-value ([1]; 0.05% PAA, 40° C., spores in suspension (FIG. 18)): 1.90 | time for a 6 log reduction ([1]; 0.05% PAA, 40° C., suspension): 11 minutes | efficiency in breaking down proteins [2]: more efficient than 6% hydrogen peroxide in significantly breaking down proteins | amount of digestible hydroxyproline ([3]; 0.1% PAA (FIGS. 31, 32)): did not increase the amount of digestible hydroxyproline | ratio of degraded collagen compared to untreated controls ([3]; 6% hydrogen peroxide, 0.1% PAA, 50° C., one hour (FIG. 22)): significantly altered matrix properties | growth inhibition by residual germicide ([4]; within the processing concentrations, blood agar plates (FIG. 13)): no inhibition was observed

CCCCCCCCCCCCOS(=O)(=O)[O-].[Na+] [SDS, sodium dodecyl sulfate]
transmural cell removal [5]: > 94%

octylphenol ethoxylate [Triton]
collagen degradation compared to untreated controls ([3]; Triton 1.0%, Cholate 0.25%, 48° C., 24 hours, constant agitation (FIG. 11)): A significant degradative effect was not seen

OO [hydrogen peroxide]
D-value ([1]; 6% peroxide, 40° C., spores in suspension (FIG. 16)): 47.39 | time for a 6 log reduction ([1]; 6% peroxide, 40° C., suspension): ~5 hours | D-value ([1]; 6% peroxide, 45° C., spores in suspension (FIG. 15)): 23.0 | D-value ([1]; 6% peroxide, 50° C., spores in suspension (FIG. 14)): 9.87 | time for a 6 log reduction ([1]; 6% peroxide, 50° C., suspension): less than an hour | reduction of the D-value by an increase in temperature ([1]; 6% peroxide, from 40° C. to 50° C., suspension): approximately 80% | effect of buffer/pH on sterilizing [6]: a buffered solution may be more effective | log microbial reductions [7]: below 0.2 log | time for a 6 log reduction ([8]; 6% hydrogen peroxide, 50° C., spiked tissue): less than 40 minutes | D-value ([8]; 6% hydrogen peroxide, 50° C., spiked tissue (FIG. 20)): 6.63 | D-value with tissue ([8]; 6% peroxide with tissue, temperature not stated): 5.34 | D-value ([8]; 6% peroxide, 40° C., spiked tissue (FIG. 21)): 15.17 | decrease of D-value with tissue versus suspension ([8]; 6% peroxide, temperature not stated): approximately 4 minutes | D-value [9]: 4.7 min | D-value [10]: 55.2 min | ratio of degraded collagen compared to untreated controls [3]: significantly altered matrix properties | residual concentration that inhibited the growth ([4]; TSA plates): ≥ 0.6% | residual concentration that inhibited the growth ([4]; blood plates): ≥ 6% | growth of spores [11]: No growth was detected

Trypsin
level of antigens ([12]; 1.0% Trypsin or 1.0%/0.02% Trypsin/EDTA, minimum of 48° C. and 17 hrs): significantly reduced the level of antigens | cellularity in histology [13]: still evidence of cells | collagen degradation compared to untreated controls [3]: less than half of the degradation of the untreated controls

O=C(O)CN(CCN(CC(=O)O)CC(=O)O)CC(=O)O [EDTA]
effect of addition of EDTA on removal of cells ([12]; added to Triton at 0.25%, 6 hours, 37° C.): enhance the removal of cells | effect of addition of EDTA on removal of antigens ([12]; added to Trypsin): inconsistent effect
